The text below walks through data of patent publication US11806359B2 (priority 2020, dated 2023).

In series [1] the test system is SARS-CoV-2. The series can be described thus: Direct antiviral activity against SARS-CoV-2, percent infected cells by immunostaining (Example 29). The format is cell-based. As to the method: The results are depicted in FIGS. 24A and 24B. […] Potential methods of action include inhibition of viral replication, assembly, and/or egress.
Growth media was removed from confluent monolayers of approximately 10^6 Vero CCL81 cells in 6-well plates. Oleandrin was serially diluted in culture media and added to […]. The growth media was replaced with 200 μl of maintenance media containing either 1.0 μg/ml, 0.5 μg/ml, 100 ng/ml, 50 ng/ml, 10 ng/ml, or 5 ng/ml oleandrin, or matched DMSO-only controls. The plates were incubated at 37° C. for about 30 minutes prior to addition of virus.
SARS-CoV-2 virus was added to Oleandrin treated cells and untreated cells at a MOI (multiplicity of infection) of 0.4 (entry assay) or 0.02 (replication assay). Oleandrin remained in the wells during a 1 hr incubation at 37° C.
After 1 hr absorption, inoculation media was removed and washed 1 time with PBS (standard phosphate buffer saline).
Media alone (no oleandrin) was added back to oleandrin-treated wells designated as “Pretreatment” on data slides. Media with indicated concentrations of oleandrin was added back to wells designated as “Duration” on data slides.
Plates were fixed at either 24 (entry assay) or 48 (replication assay) hours post-infection and immunostained with virus-specific antibody and fluorescently labeled secondary antibody.
Cells were imaged using an Operetta and data was analyzed using custom algorithms in Harmonia software to determine the percent of infected cells in each well.

Series [2] deals with HTLV-1. The series can be described thus: Virological synapse formation and HTLV-1 transmission, SLB1/pLenti-GFP with huPBMCs, fluorescence microscopy. The format is cell-based, human T-cell leukemia virus type-1. Particulars: in vitro co-culture.
Series [3] deals with Vero cells.
Series [4] has as its system adenovirus. As to the kind of experiment: Antiviral activity against adenovirus. It is filed as cell-based.
For series [5], the system named is DENV2 (08-10381 Montserrat strain). As to the kind of experiment: CPE-based antiviral assay, DENV2, neutral red readout (Example 14). Particulars: 7 days post infection. It is filed as cell-based, Dengue virus. As to the method:
A CPE-based antiviral assay was performed by infecting target cells in the presence or absence of test compositions, at a range of concentrations. […] cytopathic effects and cell death. […] For CPE-based assays, cell viability was determined with a neutral red readout. Viable cells incorporate neutral red in their lysosomes. Uptake of neutral red relies on the ability of live cells to maintain a lower pH inside their lysosomes than in the cytoplasm, and this active process requires ATP. Once inside the lysosome, the neutral red dye becomes charged and is retained intracellularly. […] The amount of neutral red in solution was quantified by reading the absorbance (optical density) of each well at 490 nm […]
Cytotoxic effects were evaluated in uninfected cells by comparing viability in the presence of inhibitors to the viability of mock-treated cells. Cytotoxicity was determined by an XTT viability assay, which was conducted at the same timepoint as the readout for the corresponding infection assay.
Test compositions were dissolved in 100% methanol. […] When possible, the EC50 and CC50 of the composition was determined for each assay using GraphPad Prism software. […]
Protection of DENV2-induced cytopathic effect (CPE) with Neutral Red readout: For the DENV2 antiviral assay, the 08-10381 Montserrat strain was used. […]

On to `CO[C@H]1C[C@H](O[C@H]2CC[C@@]3(C)[C@H](CC[C@@H]4[C@@H]3CC[C@]3(C)[C@@H](C5=CC(=O)OC5)[C@@H](OC(C)=O)C[C@]43O)C2)O[C@@H](C)[C@@H]1O` [oleandrin], for which, in series [1] (48-h, oleandrin only during the absorption phase (Pre-treatment data)), the antiviral activity entry was “minimal antiviral activity”. In series [1] (48-h, treated for the duration of the assay), the viral infection result is reported as “significantly limited viral infection”. Moreover, the “virus entry and/or viral replication” value in series [1] (24 h, treated for the duration of the assay) is “significantly limited virus entry and/or viral replication”. Besides, the “formation of virological synapses and transmission of HTLV-1” value in series [2] is “inhibited the formation of virological synapses and the transmission of HTLV-1”. Also, the “toxicity to Vero cells” value in series [3] was “not overly toxic”. Moreover, the activity against adenovirus entry in series [4] is on record as “insufficiently active”. The “efficacy against Dengue virus” value in series [5] is reported as “demonstrates efficacy”.
